In assay [1] the target is Thymidylate synthase (Mus musculus, UniProt P07607). The assay can be described thus: Inhibitory effect on murine leukemia (L1210) thymidylate synthase.
The target in assay [2] is T1, Thymidylate synthase (Lactobacillus casei, UniProt P00469).
T1 sequence (P00469 whole entry): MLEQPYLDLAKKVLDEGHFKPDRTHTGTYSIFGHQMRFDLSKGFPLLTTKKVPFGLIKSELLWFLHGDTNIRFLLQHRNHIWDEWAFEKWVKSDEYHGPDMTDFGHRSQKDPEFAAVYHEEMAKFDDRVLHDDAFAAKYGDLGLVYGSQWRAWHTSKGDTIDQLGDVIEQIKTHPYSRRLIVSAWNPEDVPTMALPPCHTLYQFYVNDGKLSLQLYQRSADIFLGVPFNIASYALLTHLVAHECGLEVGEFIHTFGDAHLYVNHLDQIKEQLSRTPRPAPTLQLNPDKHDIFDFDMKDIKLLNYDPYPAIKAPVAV
The assay can be described thus: Inhibitory effect on Lactobacillus casei thymidylate synthase. The arrangement: species or system Lacticaseibacillus casei.

Assay [3] deals with Thymidylate synthase (Homo sapiens, UniProt P04818). The assay can be described thus: Inhibitory effect on human lymphoblast (Molt/4F) thymidylate synthase.

One may read the Ki as the equilibrium dissociation constant of an inhibitor or competing ligand from its target. Low readings indicate higher affinity, high ones lower affinity.

Chain of Thymidylate synthase (Homo sapiens, UniProt P04818) (P04818 whole entry): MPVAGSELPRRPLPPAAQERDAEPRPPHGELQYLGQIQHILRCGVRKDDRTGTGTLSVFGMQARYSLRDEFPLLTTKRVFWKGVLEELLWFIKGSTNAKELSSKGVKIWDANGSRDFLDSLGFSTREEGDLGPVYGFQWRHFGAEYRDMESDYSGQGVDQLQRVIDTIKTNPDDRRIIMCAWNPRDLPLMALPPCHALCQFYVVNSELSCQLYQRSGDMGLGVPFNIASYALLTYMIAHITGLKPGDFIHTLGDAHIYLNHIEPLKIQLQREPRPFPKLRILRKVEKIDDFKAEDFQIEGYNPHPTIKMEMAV
Chain of Thymidylate synthase (Mus musculus, UniProt P07607) (P07607 whole entry): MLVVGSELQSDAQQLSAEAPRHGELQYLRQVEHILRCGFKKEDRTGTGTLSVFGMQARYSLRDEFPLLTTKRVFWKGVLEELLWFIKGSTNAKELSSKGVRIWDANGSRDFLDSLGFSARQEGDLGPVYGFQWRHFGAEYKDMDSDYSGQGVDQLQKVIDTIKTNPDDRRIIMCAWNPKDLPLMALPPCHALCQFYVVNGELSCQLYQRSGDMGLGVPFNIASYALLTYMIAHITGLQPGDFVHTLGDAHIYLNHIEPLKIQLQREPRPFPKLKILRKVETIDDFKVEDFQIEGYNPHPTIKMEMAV

Consider `O=c1[nH]c(=O)n([C@H]2C[C@H](O)[C@@H](COP(=O)(O)O)O2)cc1-c1ccc([N+](=O)[O-])cc1`, for which the Ki in assay [1] was 48.3 µM; in assay [2], 6.42 µM.

As for `O=c1[nH]c(=O)n([C@H]2C[C@H](O)[C@@H](COP(=O)(O)O)O2)cc1-c1ccccc1`, the results for the Ki in assay [1] and in assay [2] were 12.2 µM and 0.96 µM, respectively.

`Cc1ccc(-c2cn([C@H]3C[C@H](O)[C@@H](COP(=O)(O)O)O3)c(=O)[nH]c2=O)cc1`: in assay [1], the affinity, expressed as Ki, was 8.3 µM.

Regarding `COc1ccc(-c2cn([C@H]3C[C@H](O)[C@@H](COP(=O)(O)O)O3)c(=O)[nH]c2=O)cc1`, the inhibition constant Ki in assay [1] was 33 µM; in assay [2] it was 1.21 µM.

Take `Nc1ccc(-c2cn([C@H]3C[C@H](O)[C@@H](COP(=O)(O)O)O3)c(=O)[nH]c2=O)cc1`: the inhibition constant Ki in assay [1] came out at 11.3 µM; in assay [2], 1.13 µM.

`O=c1[nH]c(=O)n([C@H]2C[C@H](O)[C@@H](COP(=O)(O)O)O2)cc1-c1ccc(OCc2ccccc2)cc1`: the inhibitory constant (Ki) in assay [1] stood at 11.2 µM.

Consider `O=c1[nH]c(=O)n([C@H]2C[C@H](O)[C@@H](COP(=O)(O)O)O2)cc1-c1ccc(O)cc1`, for which the results for the Ki in assay [1], in assay [2] and in assay [3] were 179 µM, 7.62 µM and 134 µM, respectively.

Take `CN(C)c1ccc(-c2cn([C@H]3C[C@H](O)[C@@H](COP(=O)(O)O)O3)c(=O)[nH]c2=O)cc1`: the figures for the Ki in assay [1] and in assay [2] were 48 µM and 1.41 µM, respectively.

Take `N#Cc1ccc(-c2cn([C@H]3C[C@H](O)[C@@H](COP(=O)(O)O)O3)c(=O)[nH]c2=O)cc1`: the inhibition constant Ki in assay [1] was 97.8 µM; in assay [2], 8.75 µM; in assay [3], 114 µM.

As to `O=c1[nH]c(=O)n([C@H]2C[C@H](O)[C@@H](COP(=O)(O)O)O2)cc1-c1ccc(C(F)(F)F)cc1`, the Ki was determined as 93.4 µM in assay [1] and 4.93 µM in assay [2].

Turning to `NC(=O)c1ccc(-c2cn([C@H]3C[C@H](O)[C@@H](COP(=O)(O)O)O3)c(=O)[nH]c2=O)cc1`, the inhibitory constant (Ki) in assay [1] was 113 µM; in assay [2] it was 5.67 µM; in assay [3], 119 µM.

As for `O=c1[nH]c(=O)n([C@H]2C[C@H](O)[C@@H](COP(=O)(O)O)O2)cc1-c1ccc(Br)cc1`, the figures for the inhibition constant (Ki) in assay [1] and in assay [2] were 29.2 µM and 1.81 µM, respectively.

For `COC(=O)c1ccc(-c2cn([C@H]3C[C@H](O)[C@@H](COP(=O)(O)O)O3)c(=O)[nH]c2=O)cc1`, the results for the inhibitory constant (Ki) in assay [1], in assay [2] and in assay [3] were 46.1 µM, 3.99 µM and 102 µM, respectively.

The values are drawn from ChEMBL document CHEMBL1124237, “Linear free energy relationship studies of enzyme active site binding: thymidylate synthase” (J Med Chem, 1988).
